Experimental data as given in patent US10829458B2 (Araxes Pharma LLC, priority 2015, dated 2020).

Biological target: T1, KRAS G12C 1-169, his-tagged protein, GDP-loaded (Homo sapiens, UniProt P01116, G12C)
T1 construct: KRAS G12C 1-169, his-tagged protein, GDP-loaded
Test: Biochemical assay: covalent modification of KRAS G12C measured by mass spectrometry (RapidFire/TOF or Q-Exactive)
Details: covalent binding to KRAS G12C
In short: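 GDP-loaded his-tagged KRAS G12C 1-169 at 2 μM in 20 mM Hepes, 150 mM NaCl, 1 mM MgCl2 incubated at room temperature with compound (10, 30 or 100 μM final, 2% DMSO) for 30 min, 2 h or 24 h, then quenched with formic acid. Intact-protein LC-MS (RapidFire/TOF or Q-Exactive) with deconvolution quantified modified versus unmodified protein.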

| Compound | Binding % (compounds of structure (II)) | Binding % (compounds of structure (I)) |
| --- | --- | --- |
| C=CC(=O)N1CCN(c2ncnc3cc(-c4c(F)cccc4C(F)F)c(Cl)cc23)CC1 [II-5, 1-(4-(6-chloro-7-(2-(difluoromethyl)-6-fluorophenyl)quinazolin-4-yl)piperazin-1-yl)prop-2-en-1-one] | + (+ indicates binding activity up to 50%) |  |
| C=CC(=O)N1CCN(c2nc(OCCN3CCOCC3)nc3c(F)c(-c4cc(O)cc5ccccc45)c(Cl)cc23)CC1 [Example I-14, 1-(4-(6-chloro-8-fluoro-7-(3-hydroxy-naphthalen-1-yl)-2-(2-morpholino-ethoxy)quinazolin-4-yl)piperazin-1-yl)prop-2-en-1-one] |  | +++ (+++ indicates binding activity greater than 90%) |
| C=CC(=O)N1CCN(c2nc(N3CC(N4CC(F)(F)C4)C3)nc3c(F)c(-c4c(O)cccc4F)c(Cl)cc23)CC1 [Example I-179, 1-(4-(6-chloro-2-(3,3-difluoro-[1,3′-biazetidin]-1′-yl)-8-fluoro-7-(2-fluoro-6-hydroxyphenyl)quinazolin-4-yl)piperazin-1-yl) prop-2-en-1-one] |  | + (+ indicates binding activity up to 50%) |
| C=CC(=O)N1CCN(c2nc(OCC(O)CN(C)C)nc3c(F)c(-c4cc(O)cc5ccccc45)c(Cl)cc23)CC1 (stereo not drawn) [Example I-58, 1-(4-(6-chloro-2-(3-(dimethyl-amino)-2-hydroxy-propoxy)-8-fluoro-7-(3-hydroxy-naphthalen-1-yl)quinazolin-4-yl)piperazin-1-yl)prop-2-en-1-one] |  | +++ (+++ indicates binding activity greater than 90%) |
| C=CC(=O)N1CCN(c2nc(OCCn3ccnc3C)nc3c(F)c(-c4c(C)ccc5[nH]ncc45)c(Cl)cc23)CC1 [Example I-6, 1-(4-(6-chloro-8-fluoro-2-(2-(2-methyl-1H-imidazol-1-yl)ethoxy)-7-(5-methyl-1H-indazol-4-yl)quinazolin-4-yl)piperazin-1-yl)prop-2-en-1-one] |  | +++ (+++ indicates binding activity greater than 90%) |
| C=CC(=O)N1CCN(c2nc(N3CC(N4CCN(C5CC5)CC4)C3)nc3c(F)c(-c4c(C)ccc5[nH]ncc45)c(Cl)cc23)CC1 [Example I-176, 1-(4-(6-chloro-2-(3-(4-cyclopropyl-piperazin-1-yl)azetidin-1-yl)-8-fluoro-7-(5-methyl-1H-indazol-4-yl)quinazolin-4-yl)piperazin-1-yl) prop-2-en-1-one] |  | ++ (++ indicates binding activity from 50 to 90%) |
| C=CC(=O)N1CCN(c2nc(CP(C)(C)=O)nc3c(F)c(-c4c(O)cccc4F)c(Cl)cc23)CC1 [Example I-209, 1-(4-(6-chloro-2-((dimethyl-phosphoryl)methyl)-8-fluoro-7-(2-fluoro-6-hydroxyphenyl)quinazolin-4-yl)piperazin-1-yl) prop-2-en-1-one] |  | ++ (++ indicates binding activity from 50 to 90%) |
| C=CC(=O)N1CCN(c2nc(NC3CCN(CC4CC4)CC3)nc3c(F)c(-c4c(C)ccc5[nH]ncc45)c(Cl)cc23)CC1 [Example I-128, 1-(4-(6-chloro-2-(1-(cyclo-propylmethyl)piperidin-4-ylamino)-8-fluoro-7-(5-methyl-1H-indazol-4-yl)quinazolin-4-yl)piperazin-1-yl) prop-2-en-1-one] |  | +++ (+++ indicates binding activity greater than 90%) |
| C=CC(=O)N1CCN(c2nc(N)nc3c(F)c(-c4c(C)ccc5[nH]ncc45)c(Cl)cc23)CC1 [Example I-189, 1-(4-(2-amino-6-chloro-8-fluoro-7-(5-methyl-1H-indazol-4-yl)quinazolin-4-yl)piperazin-1-yl) prop-2-en-1-one] |  | ++ (++ indicates binding activity from 50 to 90%) |
| C=CC(=O)N1CCN(c2nc(OCCN3CC[C@H](OC)C3)nc3c(F)c(-c4c(O)cccc4F)c(Cl)cc23)CC1 [Example I-33, 1-(4-(6-chloro-8-fluoro-7-(2-fluoro-6-hydroxyphenyl)-2-(2-((S)-3-methoxy-pyrrolidin-1-yl)ethoxy)quinazolin-4-yl)piperazin-1-yl)prop-2-en-1-one] |  | +++ (+++ indicates binding activity greater than 90%) |
| C=CC(=O)N1CCN(c2nc(OC3CCN(C4CC4)CC3)nc3c(F)c(-c4c(O)cccc4F)c(Cl)cc23)CC1 [Example I-94, 1-(4-(6-chloro-2-(1-cyclopropyl-piperidin-4-yloxy)-8-fluoro-7-(2-fluoro-6-hydroxyphenyl)quinazolin-4-yl)piperazin-1-yl)prop-2-en-1-one] |  | +++ (+++ indicates binding activity greater than 90%) |
| C=CC(=O)N1CCN(c2nc(OCCCN3CCC(F)(F)C3)nc3c(F)c(-c4c(O)cccc4F)c(Cl)cc23)CC1 [Example I-62, 1-(4-(6-chloro-2-(3-(3,3-difluoro-pyrrolidin-1-yl)propoxy)-8-fluoro-7-(2-fluoro-6-hydroxyphenyl)quinazolin-4-yl)piperazin-1-yl) prop-2-en-1-one] |  | +++ (+++ indicates binding activity greater than 90%) |
| C=CC(=O)N1CCN(c2nc(C(F)(F)F)nc3c(F)c(-c4c(O)cccc4F)c(Cl)cc23)CC1 [Example I-204, 1-(4-(6-chloro-8-fluoro-7-(2-fluoro-6-hydroxyphenyl)-2-(trifluoro-methyl)quinazolin-4-yl)piperazin-1-yl) prop-2-en-1-one] |  | ++ (++ indicates binding activity from 50 to 90%) |
| C=CC(=O)N1CCN(c2nc(OCCc3ccccn3)nc3c(F)c(-c4c(O)cccc4F)c(Cl)cc23)CC1 [Example I-45, 1-(4-(6-chloro-8-fluoro-7-(2-fluoro-6-hydroxyphenyl)-2-(2-(pyridin-2-yl)ethoxy)quinazolin-4-yl)piperazin-1-yl)prop-2-en-1-one] |  | +++ (+++ indicates binding activity greater than 90%) |
| C=CC(=O)N1CCN(c2nc(OCCN3CCOCC3)nc3c(F)c(-c4cc(O)cc5cccnc45)c(Cl)cc23)CC1 [Example I-108, 1-(4-(6-chloro-8-fluoro-7-(6-hydroxy-quinolin-8-yl)-2-(2-morpholino-ethoxy)quinazolin-4-yl)piperazin-1-yl) prop-2-en-1-one] |  | +++ (+++ indicates binding activity greater than 90%) |
| C=CC(=O)N1CCN(c2nc(NCCc3ccccn3)nc3c(F)c(-c4c(C)ccc5[nH]ncc45)c(Cl)cc23)CC1 [Example I-142, 1-(4-(6-chloro-8-fluoro-7-(5-methyl-1H-indazol-4-yl)-2-(2-(pyridin-2-yl)ethylamino)quinazolin-4-yl)piperazin-1-yl) prop-2-en-1-one] |  | +++ (+++ indicates binding activity greater than 90%) |
| C=CC(=O)N1CCN(c2nc(NC3CCN(c4ncccn4)CC3)nc3c(F)c(-c4c(C)ccc5[nH]ncc45)c(Cl)cc23)CC1 [Example I-184, 1-(4-(6-chloro-8-fluoro-7-(5-methyl-1H-indazol-4-yl)-2-((1-(pyrimidin-2-yl)piperidin-4-yl)amino)quinazolin-4-yl)piperazin-1-yl) prop-2-en-1-one] |  | + (+ indicates binding activity up to 50%) |
| C=CC(=O)N1CCN(c2nc(OCCN3CCN(C(C)C)CC3)nc3c(F)c(-c4c(O)cccc4F)c(Cl)cc23)CC1 [Example I-42, 1-(4-(6-chloro-8-fluoro-7-(2-fluoro-6-hydroxyphenyl)-2-(2-(4-isopropyl-piperazin-1-yl)ethoxy)quinazolin-4-yl)piperazin-1-yl)prop-2-en-1-one] |  | +++ (+++ indicates binding activity greater than 90%) |
| C=CC(=O)N1CCN(c2nc(OCCc3ncccc3F)nc3c(F)c(-c4c(O)cccc4F)c(Cl)cc23)CC1 [Example I-114, 1-(4-(6-chloro-8-fluoro-7-(2-fluoro-6-hydroxyphenyl)-2-(2-(3-fluoro-pyridin-2-yl)ethoxy)quinazolin-4-yl)piperazin-1-yl) prop-2-en-1-one] |  | +++ (+++ indicates binding activity greater than 90%) |
| C=CC(=O)N1CCCN(c2ncnc3c(F)c(-c4c(O)cccc4F)c(Cl)cc23)CC1 [II-7, 1-(4-(6-chloro-8-fluoro-7-(2-fluoro-6-hydroxyphenyl)quinazolin-4-yl)-1,4-diazepan-1-yl)prop-2-en-1-one] | + (+ indicates binding activity up to 50%) |  |
| C=CC(=O)N1CCN(c2nc(NC3CCOCC3)nc3c(F)c(-c4cc(O)cc5ccccc45)c(Cl)cc23)CC1 [Example I-69, 1-(4-(6-chloro-8-fluoro-7-(3-hydroxy-naphthalen-1-yl)-2-(tetrahydro-2H-pyran-4-ylamino)quinazolin-4-yl)piperazin-1-yl)prop-2-en-1-one] |  | +++ (+++ indicates binding activity greater than 90%) |
| C=CC(=O)N1CCN(c2nc(OCCc3ccccn3)nc3c(F)c(-c4cc(OC)cc5ccccc45)c(Cl)cc23)CC1 [Example I-54, 1-(4-(6-chloro-8-fluoro-7-(3-methoxy-naphthalen-1-yl)-2-(2-(pyridin-2-yl)ethoxy)quinazolin-4-yl)piperazin-1-yl)prop-2-en-1-one] |  | + (+ indicates binding activity up to 50%) |
| C=CC(=O)N1CCN(c2nc(C(=O)N3CCOCC3)nc3c(F)c(-c4c(O)cccc4F)c(Cl)cc23)CC1 [Example I-49, 1-(4-(6-chloro-8-fluoro-7-(2-fluoro-6-hydroxyphenyl)-2-(morpholine-4-carbonyl)quinazolin-4-yl)piperazin-1-yl) prop-2-en-1-one] |  | +++ (+++ indicates binding activity greater than 90%) |
| C=CC(=O)N1CCN(c2nc(OCCN3CCC(F)CC3)nc3c(F)c(-c4c(O)cccc4F)c(Cl)cc23)CC1 [Example I-76, 1-(4-(6-chloro-8-fluoro-7-(2-fluoro-6-hydroxyphenyl)-2-(2-(4-fluoro-piperidin-1-yl)ethoxy)quinazolin-4-yl)piperazin-1-yl)prop-2-en-1-one] |  | +++ (+++ indicates binding activity greater than 90%) |
